Reference: PubChem BioAssay (NCI)
“And” between values parts separate entries of the source, which are not always exact repeats. Identical values can stand only once.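 Protocol summary: plate cells (96-well), add compound at 5 concentrations, incubate 48 h, interpolate endpoints linearly. GI50 marks 50% less growth. TGI denotes the concentration required for complete inhibition of growth.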

Experiments:
Assay in all cases: DTP human tumour cell line panel, 48 h
DU-145 prostate = system: DU-145 prostate
EKVX NSCLC = system: EKVX NSCLC
MDA-MB-231 breast = system: MDA-MB-231 breast
COLO 205 colon = system: COLO 205 colon
SF-268 CNS = system: SF-268 CNS
SF-295 CNS = system: SF-295 CNS
HCT-116 colon = system: HCT-116 colon
SK-OV-3 ovarian = system: SK-OV-3 ovarian
NCI/ADR-RES ovarian = system: NCI/ADR-RES ovarian
786-0 renal = system: 786-0 renal

Row | Structure (SMILES) | GI50 (DU-145 prostate) [µM] | TGI (DU-145 prostate) [µM] | GI50 (EKVX NSCLC) [µM] | TGI (EKVX NSCLC) [µM] | GI50 (MDA-MB-231 breast) [µM] | TGI (MDA-MB-231 breast) [µM] | GI50 (COLO 205 colon) [µM] | TGI (COLO 205 colon) | GI50 (SF-268 CNS) [µM] | TGI (SF-268 CNS) | GI50 (SF-295 CNS) [µM] | TGI (SF-295 CNS) [µM] | GI50 (HCT-116 colon) [µM] | TGI (HCT-116 colon) | GI50 (SK-OV-3 ovarian) [µM] | TGI (SK-OV-3 ovarian) [µM] | GI50 (NCI/ADR-RES ovarian) [µM] | TGI (NCI/ADR-RES ovarian) [µM] | GI50 (786-0 renal) [µM] | TGI (786-0 renal)
1 | COc1ccc(-c2c[nH]c(C(=O)O)c2-c2cc(OC)c(OC)c(OC)c2)cc1 | 4.27 | > 100 | 5.86 | > 100 | 12.4 | > 100 | 3.31 | 17 µM | > 100 | > 100 µM | 4.19 | > 100 | 5.02 | > 100 µM | 5.82 | > 100 | 3.8 | > 100 | 6.63 | > 100 µM
2 | FC(F)(F)c1ccc(Nc2nc(-c3c(C(F)(F)F)nc4ccccn34)cs2)cc1 | 0.0402 | 2.15 | 0.158 | 7.84 | 0.81 | 6.93 | 0.0323 | 0.167 µM | 0.0754 | 10.7 µM | 0.033 | 1.28 | 0.0426 | 2.38 µM | 0.0491 | 5.03 | 0.035 | 2.07 | 0.0398 | 2.22 µM
3 | Cc1c(C(N)=O)sc2c1C(=O)N(Cc1ccccc1)C1=NN=C(c3ccc(Cl)cc3)CN12 | 3.44 | 14.5 | 4.7 | 29.8 | 3.54 | 16 | 4.42 | 16.9 µM | 2.63 | 14.1 µM | 2.31 | 14.7 | 3.44 | 14.5 µM | 3.71 | 15.8 | 1.76 | 11.3 | 2.65 | 6.92 µM
4 | CN(C)CCN1C(=O)c2ccccc2N(C)c2ccccc21 | > 100 | > 100 | > 100 | > 100 | > 100 | > 100 | > 100 | > 100 µM | > 100 | > 100 µM | > 100 | > 100 | > 100 | > 100 µM | > 100 | > 100 | > 100 | > 100 | > 100 | > 100 µM
5 | COc1ccc(C2=CC(c3ccc4c(c3)OCO4)c3c(c4ccccc4oc3=O)O2)cc1OC (stereo not given) | – | > 100 | – | > 100 | – | > 100 | – | > 22.6 µM | – | > 100 µM | – | > 100 | – | > 100 µM | – | > 100 | – | > 100 | – | > 100 µM
6 | O=C(O)CNC(=O)c1ccc(-c2ccccc2)cc1 | – | > 100 | – | > 100 | – | > 100 | – | > 100 µM | – | > 100 µM | – | > 100 | – | > 100 µM | – | > 100 | – | > 100 | – | > 100 µM
7 | CC(C)(C)OC(=O)N1CCN(CCn2cc(C(F)(F)F)c3c(Cl)ncnc32)CC1 | 2.96 | 9.2 | 11.3 | 25.7 | 11.1 | 27.5 | 18.4 | 37.9 µM | 1.82 | 3.61 µM | 14.5 | 28.1 | 1.68 | 3.15 µM | 16.7 | 30.7 | 23 | 67.7 | 14 | 27.2 µM
8 | CCN(CC)CCCCNc1c2ccccc2[n+](C)c2c1[nH]c1ccccc12 | 0.182 | 11.5 | 0.298 | 3.16 | – | > 20.3 | 0.189 | 0.983 µM | 0.209 | 1.4 µM | 0.542 | 4.31 | 0.356 | – | 0.366 | 3.72 | 48.8 | > 100 | 1.29 | > 26 µM
9 | CN(O)c1nc(N(C)O)nc(N2CCOCC2)n1 | 4.93 | > 100 | 1.9 | > 100 | 7 | > 100 | 3.69 | > 100 µM | 5.7 | > 100 µM | 2.57 | > 100 | 1.07 | > 100 µM | 12.6 | > 100 | 2.56 | > 100 | 3.47 | 74 µM
10 | O=C1c2ccccc2C(O)(O)C1(O)C1(O)C(=O)c2ccccc2C1(O)O (stereo not given) | – | > 100 | – | > 100 | – | > 100 | – | 40.5 µM | – | > 100 µM | – | 88.5 | – | 54.1 µM | – | > 100 | – | > 100 | – | > 100 µM
11 | COc1cc(/C=C/C(=O)c2cccc(Nc3nc(Nc4ccccc4)nc(Nc4ccccc4)n3)c2)cc(OC)c1OC | 5.91 | > 100 | 9.94 | > 100 | 11.7 | > 100 | 4.77 | 30.7 µM | 13.8 | > 100 µM | 2.58 | – | 2.68 | > 66.6 µM | 43.1 | > 100 | 3.82 | > 100 | 7.66 | 43.2 µM
12 | CC1CCC(NC(=O)N(CCCl)N=O)CC1 (stereo not given) | – | 227 | – | 119 | – | 91.2 | 23.1 | 43.3 µM and 60.2 µM | 14.9 | 39.8 µM and 89.5 µM | 53.7 | 36.3 | 30.2 | 90.4 µM and 85.6 µM | – | 148 | – | 129 | 13.9 | 32.4 µM and 64.2 µM
13 | COc1ccc(-c2cc(=O)[nH]c3c(OC)c4ccccc4c(OC)c23)cc1 | 0.671 | > 100 | 2.87 | > 100 | 1.44 | > 100 | 0.424 | 3.52 µM | 0.552 | > 100 µM | 0.272 | – | 0.38 | > 100 µM | 0.606 | > 100 | 0.291 | – | 0.532 | > 100 µM
14 | COC(=O)C1(C)CCC(c2ccc(C)cc2)=C(CC(=O)O)C1 (stereo not given) | – | > 100 | – | > 100 | – | > 100 | – | > 100 µM | – | > 100 µM | – | > 100 | – | > 100 µM | – | > 100 | – | > 100 | – | > 100 µM
15 | COc1cc([C@@H]2OC[C@@H]3C(c4cc(OC)c5c(c4)OCO5)OC[C@@H]32)cc(OC)c1OC (stereo not given in full) | – | > 100 | – | > 100 | – | > 100 | – | > 100 µM | – | > 100 µM | – | > 100 | – | > 100 µM | – | > 100 | – | > 100 | – | > 100 µM
16 | COc1c(C)c2c(c(O)c1C/C=C(\C)CCC(=O)O)C(=O)OC2 | 0.57 | > 100 | 0.892 | > 100 | 0.956 | > 100 | 0.416 | > 100 µM | 0.578 | > 100 µM | 0.278 | > 100 | 0.145 | > 100 µM | 0.571 | > 100 | 0.514 | > 100 | 0.326 | > 100 µM
